Assay results reported in patent EP4685153A1 (priority 2023, dated 2024).
Residues, ends and D or L forms follow the SMILES beside them. *: point of attachment. Succinyl(4-O-cholesteryl) = CC(C)CCC[C@@H](C)[C@H]1CC[C@H]2[C@@H]3CC=C4C[C@@H](OC(=O)CCC(=O)*)CC[C@]4(C)[C@H]3CC[C@]12C

Assays:
[1] = Circular dichroism of lipopeptide alone; type: physicochemical; settings: CD, 10 µM in PBS pH 7.2
[2] = system: HIV-1 strain NL4-3 pseudovirus; settings: for IC50: strain NL4-3 pseudovirus
[3] = system: HIV-1 strain JRFL pseudovirus; settings: for IC50: strain JRFL pseudovirus
[4] = system: HIV-1 strain SG3.1 living virus; settings: for IC50: strain SG3.1 living virus
N44 = N44 (Human immunodeficiency virus type 1 group M subtype B, UniProt P04578); test: Circular dichroism of lipopeptide complex with target sequence N44; settings: CD; for Tm value of the mixture with N44: [θ]222, 20-98 °C at 2 °C/min; for α-helix content of the mixture with N44: lipopeptide and N44 each 10 µM in PBS pH 7.2
Sequence of N44 (P04578 538-581): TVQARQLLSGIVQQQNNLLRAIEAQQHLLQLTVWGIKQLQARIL

[5] = system: T20-resistant mutant strains (HIV-1 strain NL4-3); settings: T20-resistant mutant strains ( strain NL4-3, 48 h)
[6] = LP-124 versus LP-122, LP-125 versus LP-123

CC[C@H](C)[C@H](NC(=O)[C@H](CCCCN)NC(=O)[C@H](CCCCN)NC(=O)[C@H](CCC(=O)O)NC(=O)[C@H](Cc1ccc(O)cc1)NC(=O)[C@H](CCC(=O)O)NC(=O)[C@H](CCC(=O)O)NC(=O)[C@H](Cc1ccc(O)cc1)NC(=O)[C@H](CCC(=O)O)NC(C)=O)C(=O)N[C@@H](CCC(=O)O)C(=O)N[C@@H](CCC(=O)O)C(=O)N[C@@H](CC(C)C)C(=O)N[C@@H](CCC(=O)O)C(=O)N[C@@H](CCCCN)C(=O)N[C@@H](CCCCN)C(=O)N[C@H](C(=O)N[C@@H](CCC(=O)O)C(=O)N[C@@H](CCC(=O)O)C(=O)N[C@@H](CC(C)C)C(=O)N[C@@H](CC(C)C)C(=O)N[C@@H](CCCCN)C(=O)N[C@@H](CCCCN)C(=O)N[C@@H](C)C(=O)N[C@@H](CCC(=O)O)C(=O)N[C@@H](CCC(=O)O)C(=O)N[C@@H](CCC(N)=O)C(=O)N[C@@H](CCC(N)=O)C(=O)N[C@@H](CCCCN)C(=O)N[C@@H](CCCCN)C(=O)N[C@@H](CC(N)=O)C(=O)N[C@@H](CCC(=O)O)C(=O)N[C@@H](C)C(=O)N[C@@H](C)C(=O)N[C@@H](C)C(=O)N[C@@H](CCCCN)C(=O)N[C@@H](CCCCNC(=O)CCC(=O)O[C@H]1CC[C@@]2(C)C(=CC[C@H]3[C@@H]4CC[C@H]([C@H](C)CCCC(C)C)[C@@]4(C)CC[C@@H]32)C1)C(N)=O)[C@@H](C)CC [LP-126] (Ac-EYEEYEKKIEELEKKIEELLKKAEEQQKKNEAAAKK(Succinyl(4-O-cholesteryl))-NH2)
α-helix content, lipopeptide alone [1]: 51% | IC50 [2]: 3.85 pM | IC50 [3]: 6.08 pM | IC50 [4]: 1.65 pM | Tm value of the mixture with N44 (N44): 92 °C | α-helix content of the mixture with N44 (N44): 66%

CC[C@H](C)[C@H](NC(=O)[C@H](CCCCN)NC(=O)[C@H](CCCCN)NC(=O)[C@H](CCC(=O)O)NC(=O)[C@H](Cc1ccc(O)cc1)NC(=O)[C@H](CCC(=O)O)NC(=O)[C@H](CCC(=O)O)NC(=O)[C@H](Cc1ccc(O)cc1)NC(=O)[C@@H](NC(C)=O)[C@@H](C)O)C(=O)N[C@@H](CCC(=O)O)C(=O)N[C@@H](CCC(=O)O)C(=O)N[C@@H](CC(C)C)C(=O)N[C@@H](CCC(=O)O)C(=O)N[C@@H](CCCCN)C(=O)N[C@@H](CCCCN)C(=O)N[C@H](C(=O)N[C@@H](CCC(=O)O)C(=O)N[C@@H](CCC(=O)O)C(=O)N[C@@H](CC(C)C)C(=O)N[C@@H](CC(C)C)C(=O)N[C@@H](CCCCN)C(=O)N[C@@H](CCCCN)C(=O)N[C@@H](C)C(=O)N[C@@H](CCC(=O)O)C(=O)N[C@@H](CCC(=O)O)C(=O)N[C@@H](CCC(N)=O)C(=O)N[C@@H](CCC(N)=O)C(=O)N[C@@H](CCCCN)C(=O)N[C@@H](CCCCN)C(=O)N[C@@H](CC(N)=O)C(=O)N[C@@H](CCC(=O)O)C(=O)N[C@@H](CCC(N)=O)C(=O)N[C@@H](CCC(=O)O)C(=O)N[C@@H](C)C(=O)N[C@@H](C)C(=O)N[C@@H](C)C(=O)N[C@@H](CCCCN)C(=O)N[C@@H](CCCCNC(=O)CCC(=O)O[C@H]1CC[C@@]2(C)C(=CC[C@H]3[C@@H]4CC[C@H]([C@H](C)CCCC(C)C)[C@@]4(C)CC[C@@H]32)C1)C(N)=O)[C@@H](C)CC [LP-124] (Ac-TYEEYEKKIEELEKKIEELLKKAEEQQKKNEQEAAAKK(Succinyl(4-O-cholesteryl))-NH2)
α-helix content, lipopeptide alone [1]: 64% | activity increased as compared to its template, NL4-3 pseudovirus [2, 6]: about 11 folds | IC50 [2]: 2.07 pM | activity increased as compared to its template, JRFL pseudovirus [3, 6]: ~7 folds | IC50 [3]: 5.93 pM | activity increased as compared to its template, SG3.1 living virus [4, 6]: ~9 folds | IC50 [4]: 1.06 pM | Tm value of the mixture with N44 (N44): 86 °C | α-helix content of the mixture with N44 (N44): 79%

CC[C@H](C)[C@H](NC(=O)[C@H](CCCCN)NC(=O)[C@H](CCC(N)=O)NC(=O)[C@H](CCC(=O)O)NC(=O)[C@H](Cc1ccc(O)cc1)NC(C)=O)C(=O)N[C@@H](CCC(=O)O)C(=O)N[C@@H](CCC(=O)O)C(=O)N[C@@H](CC(C)C)C(=O)N[C@@H](CC(C)C)C(=O)N[C@@H](CCCCN)C(=O)N[C@@H](CCCCN)C(=O)N[C@@H](C)C(=O)N[C@@H](CCC(=O)O)C(=O)N[C@@H](CCC(=O)O)C(=O)N[C@@H](CCC(N)=O)C(=O)N[C@@H](CCC(N)=O)C(=O)N[C@@H](CCCCN)C(=O)N[C@@H](CCCCN)C(=O)N[C@@H](CC(N)=O)C(=O)N[C@@H](CCC(=O)O)C(=O)N[C@@H](CCC(=O)O)C(=O)N[C@@H](CC(C)C)C(=O)N[C@@H](CCCCN)C(=O)N[C@@H](CCCCN)C(=O)N[C@@H](CC(C)C)C(=O)N[C@@H](CCC(=O)O)C(=O)N[C@@H](CCCCNC(=O)CCC(=O)O[C@H]1CC[C@@]2(C)C(=CC[C@H]3[C@@H]4CC[C@H]([C@H](C)CCCC(C)C)[C@@]4(C)CC[C@@H]32)C1)C(N)=O [LP-98, reference compound] (Ac-YEQKIEELLKKAEEQQKKNEELKKLEK(Succinyl(4-O-cholesteryl))-NH2)
IC50 [5]: 2660 pM

CC[C@H](C)[C@H](NC(=O)[C@H](CCCCN)NC(=O)[C@H](CCCCN)NC(=O)[C@H](CCC(=O)O)NC(=O)[C@H](Cc1c[nH]c2ccccc12)NC(=O)[C@H](CCC(=O)O)NC(=O)[C@H](CCC(=O)O)NC(=O)[C@H](Cc1c[nH]c2ccccc12)NC(=O)[C@@H](NC(C)=O)[C@@H](C)O)C(=O)N[C@@H](CCC(=O)O)C(=O)N[C@@H](CCC(=O)O)C(=O)N[C@@H](CC(C)C)C(=O)N[C@@H](CCC(=O)O)C(=O)N[C@@H](CCCCN)C(=O)N[C@@H](CCCCN)C(=O)N[C@H](C(=O)N[C@@H](CCC(=O)O)C(=O)N[C@@H](CCC(=O)O)C(=O)N[C@@H](CC(C)C)C(=O)N[C@@H](CC(C)C)C(=O)N[C@@H](CCCCN)C(=O)N[C@@H](CCCCN)C(=O)N[C@@H](C)C(=O)N[C@@H](CCC(=O)O)C(=O)N[C@@H](CCC(=O)O)C(=O)N[C@@H](CCC(N)=O)C(=O)N[C@@H](CCC(N)=O)C(=O)N[C@@H](CCCCN)C(=O)N[C@@H](CCCCN)C(=O)N[C@@H](CC(N)=O)C(=O)N[C@@H](CCC(=O)O)C(=O)N[C@@H](CCC(N)=O)C(=O)N[C@@H](CCC(=O)O)C(=O)N[C@@H](C)C(=O)N[C@@H](C)C(=O)N[C@@H](C)C(=O)N[C@@H](CCCCN)C(=O)N[C@@H](CCCCNC(=O)CCC(=O)O[C@H]1CC[C@@]2(C)C(=CC[C@H]3[C@@H]4CC[C@H]([C@H](C)CCCC(C)C)[C@@]4(C)CC[C@@H]32)C1)C(N)=O)[C@@H](C)CC [LP-122] (Ac-TWEEWEKKIEELEKKIEELLKKAEEQQKKNEQEAAAKK(Succinyl(4-O-cholesteryl))-NH2)
α-helix content, lipopeptide alone [1]: 65% | IC50 [2]: 22.5 pM | IC50 [3]: 41.5 pM | IC50 [4]: 9.05 pM | Tm value of the mixture with N44 (N44): > 98 °C | α-helix content of the mixture with N44 (N44): 81%

CC[C@H](C)[C@H](NC(=O)[C@H](CCCCN)NC(=O)[C@H](CCCCN)NC(=O)[C@H](CCC(=O)O)NC(=O)[C@H](Cc1c[nH]c2ccccc12)NC(=O)[C@H](CCC(=O)O)NC(=O)[C@H](CCC(=O)O)NC(=O)[C@H](Cc1c[nH]c2ccccc12)NC(=O)[C@@H](NC(=O)[C@H](CCSC)NC(=O)[C@H](CCC(=O)O)NC(C)=O)[C@@H](C)O)C(=O)N[C@@H](CCC(=O)O)C(=O)N[C@@H](CCC(=O)O)C(=O)N[C@@H](CC(C)C)C(=O)N[C@@H](CCC(=O)O)C(=O)N[C@@H](CCCCN)C(=O)N[C@@H](CCCCN)C(=O)N[C@H](C(=O)N[C@@H](CCC(=O)O)C(=O)N[C@@H](CCC(=O)O)C(=O)N[C@@H](CC(C)C)C(=O)N[C@@H](CC(C)C)C(=O)N[C@@H](CCCCN)C(=O)N[C@@H](CCCCN)C(=O)N[C@@H](C)C(=O)N[C@@H](CCC(=O)O)C(=O)N[C@@H](CCC(=O)O)C(=O)N[C@@H](CCC(N)=O)C(=O)N[C@@H](CCC(N)=O)C(=O)N[C@@H](CCCCN)C(=O)N[C@@H](CCCCN)C(=O)N[C@@H](CC(N)=O)C(=O)N[C@@H](CCC(=O)O)C(=O)N[C@@H](C)C(=O)N[C@@H](C)C(=O)N[C@@H](C)C(=O)N[C@@H](CCCCN)C(=O)N[C@@H](CCCCNC(=O)CCC(=O)O[C@H]1CC[C@@]2(C)C(=CC[C@H]3[C@@H]4CC[C@H]([C@H](C)CCCC(C)C)[C@@]4(C)CC[C@@H]32)C1)C(N)=O)[C@@H](C)CC [LP-121] (Ac-EMTWEEWEKKIEELEKKIEELLKKAEEQQKKNEAAAKK(Succinyl(4-O-cholesteryl))-NH2)
α-helix content, lipopeptide alone [1]: 69% | IC50 [2]: 52 pM | IC50 [3]: 42.4 pM | IC50 [4]: 9.88 pM | Tm value of the mixture with N44 (N44): > 98 °C | α-helix content of the mixture with N44 (N44): 81%
